Where two headings read alike, the source gives them in different places. A value given as a limit tells only on which side of the number the result lay.

By inhibition is commonly meant the share of the control response that was lost under treatment. Usually IC50 stands for the concentration at which inhibition is half-maximal.

What all share (type): biochemical
For assay [1], the target named is c-Src (Homo sapiens, UniProt P12931). As to the kind of experiment: Kinase panel screening. Conditions: single dose of 10 μM, read-out: % inhibition rate.
Chain of c-Src (P12931 whole entry, species assumed): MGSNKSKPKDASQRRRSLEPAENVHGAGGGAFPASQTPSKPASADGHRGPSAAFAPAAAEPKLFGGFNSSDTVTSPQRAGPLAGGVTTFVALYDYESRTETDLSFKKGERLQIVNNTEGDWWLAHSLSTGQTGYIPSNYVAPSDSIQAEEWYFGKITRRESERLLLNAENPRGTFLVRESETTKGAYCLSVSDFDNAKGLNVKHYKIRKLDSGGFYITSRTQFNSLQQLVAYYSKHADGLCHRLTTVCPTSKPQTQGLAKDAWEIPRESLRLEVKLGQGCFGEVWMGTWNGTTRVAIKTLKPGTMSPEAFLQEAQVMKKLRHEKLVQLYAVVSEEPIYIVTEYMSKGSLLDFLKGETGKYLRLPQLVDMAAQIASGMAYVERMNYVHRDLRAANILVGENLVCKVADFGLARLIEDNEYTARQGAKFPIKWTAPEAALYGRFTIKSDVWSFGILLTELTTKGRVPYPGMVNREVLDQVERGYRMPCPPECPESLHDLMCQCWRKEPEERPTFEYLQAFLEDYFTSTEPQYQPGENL
Assay [2] concerns the target MEK1 (Homo sapiens, UniProt Q02750). The assay can be described thus: Kinase panel screening. Conditions: single dose of 10 μM, read-out: % inhibition rate.
The target in assay [3] is Aurora A (Homo sapiens, UniProt O14965). The assay can be described thus: Kinase panel screening. Conditions: single dose of 10 μM, read-out: % inhibition rate.
Chain of Aurora A (O14965 whole entry): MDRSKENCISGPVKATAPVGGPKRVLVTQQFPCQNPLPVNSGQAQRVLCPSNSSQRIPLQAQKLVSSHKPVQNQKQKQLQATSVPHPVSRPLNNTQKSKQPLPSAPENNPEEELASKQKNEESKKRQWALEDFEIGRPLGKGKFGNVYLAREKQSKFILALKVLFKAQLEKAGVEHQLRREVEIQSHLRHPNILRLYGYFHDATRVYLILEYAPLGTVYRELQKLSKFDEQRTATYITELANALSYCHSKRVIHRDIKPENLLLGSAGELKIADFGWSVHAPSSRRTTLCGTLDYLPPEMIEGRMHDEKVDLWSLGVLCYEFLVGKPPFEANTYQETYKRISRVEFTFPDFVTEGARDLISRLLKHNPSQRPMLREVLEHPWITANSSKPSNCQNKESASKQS
The target in assay [4] is FLT1/VEGFR1 (Homo sapiens, UniProt P17948). As to the kind of experiment: Kinase panel screening. Conditions: single dose of 10 μM, read-out: % inhibition rate.
The target in assay [5] is c-Kit (Homo sapiens, UniProt P10721). As to the kind of experiment: Kinase panel screening. Conditions: single dose of 10 μM.
Chain of c-Kit (P10721 26-976): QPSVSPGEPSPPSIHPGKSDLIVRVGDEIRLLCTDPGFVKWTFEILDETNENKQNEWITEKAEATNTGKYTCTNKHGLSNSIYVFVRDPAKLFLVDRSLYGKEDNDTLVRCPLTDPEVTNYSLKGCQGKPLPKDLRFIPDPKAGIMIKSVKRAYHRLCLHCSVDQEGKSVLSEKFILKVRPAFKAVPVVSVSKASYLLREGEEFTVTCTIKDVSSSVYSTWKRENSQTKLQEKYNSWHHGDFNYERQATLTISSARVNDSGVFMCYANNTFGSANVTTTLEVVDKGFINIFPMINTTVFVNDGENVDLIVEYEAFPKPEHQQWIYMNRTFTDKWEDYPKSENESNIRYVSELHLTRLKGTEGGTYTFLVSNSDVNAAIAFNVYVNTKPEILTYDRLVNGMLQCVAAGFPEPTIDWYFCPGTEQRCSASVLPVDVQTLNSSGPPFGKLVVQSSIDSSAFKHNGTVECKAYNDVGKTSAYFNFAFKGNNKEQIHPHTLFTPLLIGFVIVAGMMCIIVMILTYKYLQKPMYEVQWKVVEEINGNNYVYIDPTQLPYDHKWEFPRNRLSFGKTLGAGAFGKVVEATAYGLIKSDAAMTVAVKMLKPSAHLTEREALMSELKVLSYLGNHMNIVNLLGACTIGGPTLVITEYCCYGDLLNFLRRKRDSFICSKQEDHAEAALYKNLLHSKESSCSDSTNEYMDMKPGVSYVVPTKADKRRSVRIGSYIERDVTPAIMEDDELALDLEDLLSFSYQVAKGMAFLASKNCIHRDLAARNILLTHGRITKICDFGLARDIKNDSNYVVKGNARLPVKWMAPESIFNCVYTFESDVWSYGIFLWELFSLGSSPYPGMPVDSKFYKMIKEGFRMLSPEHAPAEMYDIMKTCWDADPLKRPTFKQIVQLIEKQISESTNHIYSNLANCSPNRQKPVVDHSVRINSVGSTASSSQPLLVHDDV
Assay [6] addresses AXL (R499C) (Homo sapiens, UniProt P30530, R499C). The assay can be described thus: Kinase panel screening. Conditions: single dose of 10 μM, read-out: % inhibition rate.
Assay [7] has as its target T1, FLT (ITD) (Homo sapiens, UniProt P36888).
T1 sequence (P36888 1-993): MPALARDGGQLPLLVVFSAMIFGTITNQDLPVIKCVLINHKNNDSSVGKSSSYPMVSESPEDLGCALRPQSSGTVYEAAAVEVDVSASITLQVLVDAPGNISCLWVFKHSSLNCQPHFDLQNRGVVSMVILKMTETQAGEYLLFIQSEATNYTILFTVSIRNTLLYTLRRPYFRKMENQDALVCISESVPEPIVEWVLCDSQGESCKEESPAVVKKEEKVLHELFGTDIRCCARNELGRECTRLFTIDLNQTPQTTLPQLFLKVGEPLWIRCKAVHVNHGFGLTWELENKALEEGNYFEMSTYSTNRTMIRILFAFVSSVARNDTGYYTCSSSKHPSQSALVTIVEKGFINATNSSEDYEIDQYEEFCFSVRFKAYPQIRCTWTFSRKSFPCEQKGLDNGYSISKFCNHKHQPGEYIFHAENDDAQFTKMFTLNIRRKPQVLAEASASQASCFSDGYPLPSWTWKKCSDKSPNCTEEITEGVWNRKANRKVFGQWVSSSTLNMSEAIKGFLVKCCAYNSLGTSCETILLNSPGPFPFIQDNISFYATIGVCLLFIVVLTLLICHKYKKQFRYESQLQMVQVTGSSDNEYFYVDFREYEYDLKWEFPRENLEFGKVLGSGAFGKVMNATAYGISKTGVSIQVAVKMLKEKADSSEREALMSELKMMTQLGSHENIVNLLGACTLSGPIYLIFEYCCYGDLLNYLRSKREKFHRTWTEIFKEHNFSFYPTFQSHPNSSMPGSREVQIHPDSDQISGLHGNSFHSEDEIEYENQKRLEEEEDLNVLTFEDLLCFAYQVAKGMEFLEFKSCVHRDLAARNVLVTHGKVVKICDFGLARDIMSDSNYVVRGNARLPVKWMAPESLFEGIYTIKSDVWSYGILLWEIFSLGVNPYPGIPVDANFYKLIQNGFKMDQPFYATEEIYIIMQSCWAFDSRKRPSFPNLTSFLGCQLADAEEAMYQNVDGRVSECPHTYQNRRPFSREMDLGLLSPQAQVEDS
The assay can be described thus: FLT (ITD) enzyme activity (IC50). From the text: Experimental Example 1. Measurement of FLT3 and FLT Enzyme Activity
Changes in FLT3 and FLT enzyme activities by treatment with the quinazoline derivatives of the following Table 1 according to the present invention were confirmed by IC50.

In assay [8] the target is SYK (Homo sapiens, UniProt P43405). The assay can be described thus: Kinase panel screening. The settings on record: single dose of 10 μM, read-out: % inhibition rate.
Assay [9] addresses T2, FLT3 (Homo sapiens, UniProt P36888).
T2 sequence (P36888 27-993): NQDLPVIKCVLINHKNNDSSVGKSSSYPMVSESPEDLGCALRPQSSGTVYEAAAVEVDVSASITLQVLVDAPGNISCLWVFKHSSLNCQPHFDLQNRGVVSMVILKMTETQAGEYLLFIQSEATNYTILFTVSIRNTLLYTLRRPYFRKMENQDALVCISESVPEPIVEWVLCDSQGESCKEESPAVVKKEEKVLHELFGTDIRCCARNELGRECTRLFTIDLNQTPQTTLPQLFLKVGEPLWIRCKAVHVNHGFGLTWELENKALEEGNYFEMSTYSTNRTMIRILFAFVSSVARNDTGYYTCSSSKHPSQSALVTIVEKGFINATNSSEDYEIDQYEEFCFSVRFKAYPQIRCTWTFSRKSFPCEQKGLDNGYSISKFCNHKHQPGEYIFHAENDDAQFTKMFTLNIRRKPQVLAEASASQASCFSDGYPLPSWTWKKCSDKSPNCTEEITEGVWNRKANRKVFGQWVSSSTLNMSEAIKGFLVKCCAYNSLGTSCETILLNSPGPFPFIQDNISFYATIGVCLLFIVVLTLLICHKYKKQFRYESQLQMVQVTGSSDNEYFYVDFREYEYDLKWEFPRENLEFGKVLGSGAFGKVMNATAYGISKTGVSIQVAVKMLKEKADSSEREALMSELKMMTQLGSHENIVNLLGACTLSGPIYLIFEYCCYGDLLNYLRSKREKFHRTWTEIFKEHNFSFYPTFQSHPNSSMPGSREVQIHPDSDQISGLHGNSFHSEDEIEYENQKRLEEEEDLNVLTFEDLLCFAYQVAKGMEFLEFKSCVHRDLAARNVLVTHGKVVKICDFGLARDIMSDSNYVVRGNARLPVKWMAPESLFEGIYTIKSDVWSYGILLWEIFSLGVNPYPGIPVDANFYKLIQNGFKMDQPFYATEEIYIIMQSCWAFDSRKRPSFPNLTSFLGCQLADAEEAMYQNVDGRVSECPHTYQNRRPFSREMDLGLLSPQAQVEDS
The assay can be described thus: Kinase panel screening. The settings on record: single dose of 10 μM.

The target of assay [10] is RIPK3 (Homo sapiens, UniProt Q9Y572). The assay can be described thus: Kinase panel screening. Conditions: single dose of 10 μM, read-out: % inhibition rate. The procedure:
Next, kinase panel screening for Compound 7d was investigated for 36 different kinases at a single dose of 10 μM (FIG. 1 and Table 3).

The target in assay [11] is PKA (Homo sapiens, UniProt P17612). The assay can be described thus: Kinase panel screening. The settings on record: single dose of 10 μM, read-out: % inhibition rate.
Assay [12] has as its target P38a/MAPK14 (Homo sapiens, UniProt Q16539). The assay can be described thus: Kinase panel screening. The settings on record: single dose of 10 μM, read-out: % inhibition rate.
In assay [13] the target is BRAF (V599E) (Homo sapiens, UniProt P15056, V600E). The assay can be described thus: Kinase panel screening. The settings on record: single dose of 10 μM, read-out: % inhibition rate.
Chain of BRAF (V599E) (P15056 416-766 V600E limits assumed, species assumed): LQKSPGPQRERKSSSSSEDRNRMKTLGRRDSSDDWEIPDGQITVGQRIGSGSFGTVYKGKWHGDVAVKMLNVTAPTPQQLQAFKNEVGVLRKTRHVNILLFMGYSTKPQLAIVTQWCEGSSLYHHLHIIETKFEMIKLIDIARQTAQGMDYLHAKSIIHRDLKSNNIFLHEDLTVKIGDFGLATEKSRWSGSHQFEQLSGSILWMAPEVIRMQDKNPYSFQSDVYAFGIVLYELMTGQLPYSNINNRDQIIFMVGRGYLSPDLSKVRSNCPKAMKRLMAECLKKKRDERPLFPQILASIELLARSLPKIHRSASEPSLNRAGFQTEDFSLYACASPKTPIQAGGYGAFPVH
Assay [14] deals with ERK1 (Homo sapiens, UniProt P27361). As to the kind of experiment: Kinase panel screening. The settings on record: single dose of 10 μM, read-out: % inhibition rate.
Chain of ERK1 (P27361 whole entry, species assumed): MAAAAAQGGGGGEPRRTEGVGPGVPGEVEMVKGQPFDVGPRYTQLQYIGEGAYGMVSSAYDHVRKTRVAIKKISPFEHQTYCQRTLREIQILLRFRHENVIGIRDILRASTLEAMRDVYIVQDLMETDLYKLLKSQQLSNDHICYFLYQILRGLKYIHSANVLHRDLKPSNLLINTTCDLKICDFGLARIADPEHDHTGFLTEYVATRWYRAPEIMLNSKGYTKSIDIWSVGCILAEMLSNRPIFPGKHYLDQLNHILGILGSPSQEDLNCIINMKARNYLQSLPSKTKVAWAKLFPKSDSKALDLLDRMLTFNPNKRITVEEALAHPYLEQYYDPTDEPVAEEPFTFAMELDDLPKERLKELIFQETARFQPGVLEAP
Assay [15] concerns the target LYN (Homo sapiens, UniProt P07948). The assay can be described thus: Kinase panel screening. The settings on record: single dose of 10 μM, read-out: % inhibition rate.

Chain of RIPK3 (Q9Y572 whole entry, species assumed): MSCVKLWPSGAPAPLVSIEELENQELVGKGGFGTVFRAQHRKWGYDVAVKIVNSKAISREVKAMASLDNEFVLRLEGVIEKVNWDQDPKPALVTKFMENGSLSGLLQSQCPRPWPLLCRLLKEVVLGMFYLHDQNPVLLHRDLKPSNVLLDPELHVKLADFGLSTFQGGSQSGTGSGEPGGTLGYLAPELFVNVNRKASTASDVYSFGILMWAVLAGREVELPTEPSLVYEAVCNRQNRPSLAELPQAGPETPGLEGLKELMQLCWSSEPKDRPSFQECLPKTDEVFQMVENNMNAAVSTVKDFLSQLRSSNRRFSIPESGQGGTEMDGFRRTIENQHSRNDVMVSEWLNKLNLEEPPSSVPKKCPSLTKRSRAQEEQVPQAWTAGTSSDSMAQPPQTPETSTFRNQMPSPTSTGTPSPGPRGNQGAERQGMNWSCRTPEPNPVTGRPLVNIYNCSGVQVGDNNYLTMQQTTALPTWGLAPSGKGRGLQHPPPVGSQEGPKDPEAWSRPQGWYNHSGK
Chain of AXL (R499C) (P30530 26-894 R499C, species assumed): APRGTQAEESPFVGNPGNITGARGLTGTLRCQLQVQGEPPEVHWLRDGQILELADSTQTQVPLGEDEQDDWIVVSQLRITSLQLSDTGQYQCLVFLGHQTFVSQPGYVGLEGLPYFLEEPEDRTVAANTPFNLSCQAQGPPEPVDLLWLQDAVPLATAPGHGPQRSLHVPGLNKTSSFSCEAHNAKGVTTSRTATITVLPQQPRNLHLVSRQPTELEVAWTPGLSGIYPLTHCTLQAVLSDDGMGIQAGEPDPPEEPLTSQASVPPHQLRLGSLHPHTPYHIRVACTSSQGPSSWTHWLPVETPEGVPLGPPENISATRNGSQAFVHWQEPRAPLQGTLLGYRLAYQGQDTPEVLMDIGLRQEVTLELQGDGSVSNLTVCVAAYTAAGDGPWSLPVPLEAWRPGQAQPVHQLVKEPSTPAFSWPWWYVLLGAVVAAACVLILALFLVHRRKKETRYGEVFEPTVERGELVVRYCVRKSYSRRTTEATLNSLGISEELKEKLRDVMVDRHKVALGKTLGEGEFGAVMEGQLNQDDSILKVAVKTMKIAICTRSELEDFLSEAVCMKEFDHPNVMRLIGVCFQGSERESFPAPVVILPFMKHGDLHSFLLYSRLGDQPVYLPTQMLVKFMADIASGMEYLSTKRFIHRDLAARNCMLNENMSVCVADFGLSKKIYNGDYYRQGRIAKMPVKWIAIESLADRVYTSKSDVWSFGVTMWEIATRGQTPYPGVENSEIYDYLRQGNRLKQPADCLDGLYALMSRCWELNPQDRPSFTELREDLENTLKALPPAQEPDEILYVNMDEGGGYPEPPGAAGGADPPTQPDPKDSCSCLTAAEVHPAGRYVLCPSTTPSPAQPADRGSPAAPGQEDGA
Chain of P38a/MAPK14 (Q16539 whole entry): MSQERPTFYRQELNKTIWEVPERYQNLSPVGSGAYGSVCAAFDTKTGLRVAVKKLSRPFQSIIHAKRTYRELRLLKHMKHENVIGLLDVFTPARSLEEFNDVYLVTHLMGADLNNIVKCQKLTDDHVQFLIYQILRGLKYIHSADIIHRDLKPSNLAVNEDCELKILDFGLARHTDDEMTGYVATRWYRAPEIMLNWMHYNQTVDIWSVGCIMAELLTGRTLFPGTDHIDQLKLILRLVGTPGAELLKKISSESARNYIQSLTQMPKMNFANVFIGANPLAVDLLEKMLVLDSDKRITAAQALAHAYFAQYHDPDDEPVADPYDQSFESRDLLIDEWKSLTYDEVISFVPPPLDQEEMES
Chain of LYN (P07948 whole entry, species assumed): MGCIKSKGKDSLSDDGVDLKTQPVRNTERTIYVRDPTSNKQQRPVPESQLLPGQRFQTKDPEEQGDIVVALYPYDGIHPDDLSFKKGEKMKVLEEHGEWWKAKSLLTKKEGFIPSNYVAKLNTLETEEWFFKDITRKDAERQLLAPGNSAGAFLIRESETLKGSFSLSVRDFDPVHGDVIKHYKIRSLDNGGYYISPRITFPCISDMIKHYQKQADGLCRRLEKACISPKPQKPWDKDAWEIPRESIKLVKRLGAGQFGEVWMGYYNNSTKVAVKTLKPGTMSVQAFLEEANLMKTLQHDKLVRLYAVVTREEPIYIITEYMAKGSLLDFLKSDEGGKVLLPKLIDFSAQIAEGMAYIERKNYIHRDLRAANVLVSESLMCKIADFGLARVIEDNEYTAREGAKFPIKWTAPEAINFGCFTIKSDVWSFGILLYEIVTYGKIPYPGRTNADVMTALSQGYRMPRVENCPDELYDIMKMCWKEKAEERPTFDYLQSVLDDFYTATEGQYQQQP

`Cc1oncc1C(=O)Nc1ccc2cnc(-c3cc(N4CCN(C)CC4)cc(C(F)(F)F)c3)nc2c1` [Compound 7d, 5-methyl-N-(2-(3-(4-methylpiperazin-1-yl)-5-(trifluoromethyl)phenyl)quinazolin-7-yl)isoxazole-4-carboxamide]: the inhibition at 10 µM was determined as 14.6% in assay [1]; 0% in [2]; 20.1% in assay [3]; 5.23% in [4]; 0% in assay [5] (read-out: % inhibition rate); 10.1% in assay [6]. The inhibition at 10 µM is 22.4% in [8]; 12.8% in assay [10]; 2.5% in assay [11]; 0% in assay [12]; 5.19% in assay [13]; 15% in assay [14]. The inhibition at 10 µM in assay [15] was determined as 20.5%. Also, the “% inhibition rate” value in assay [5] is “did not exhibit inhibitory activity”; in [9] it was 96.6%. The IC50 in assay [7] (read-out: FLT (ITD) IC50) is below 3000 nM; in assay [7] (read-out: IC50 against FLT-ITD), 301 nM.

The values are drawn from patent US12617758B2, “Quinazoline derivative having FLT3 inhibitory activity, and use thereof” (INDUSTRY-UNIVERSITY COOPERATION FOUNDATION HANYANG …, priority 2020, dated 2026).
